From US20250205211A1, “TYK2 INHIBITORS AND USES THEREOF” (Alumis Inc., priority 2022, published 2025) come the findings set out here.

The data set can be described thus: FIH study: single doses and seven-day courses of Compound A in healthy participants (safety, pharmacokinetics). Format: in vivo, human.
[1] abbreviates: single dose 100 mg, FIH study, mean.

Take `[2H]C([2H])([2H])CC(=O)c1cnc(NC(=O)C2CC2)cc1Nc1cccc(-c2ncn(C([2H])([2H])[2H])n2)c1OC` [Compound A, N-(4-((2-Methoxy-3-(1-(methyl-d3)-1H-1,2,4-triazol-3-yl)phenyl)amino)-5-(propanoyl-3,3,3-d3)pyridin-2-yl)cyclopropanecarboxamide]: the exposure (AUC) (human, in vivo, oral, seven-day course, 40 mg q12h, read-out: mean AUC from time 0 to 12 hours at steady state [AUCo-12,ss]) was 3620 ng·h/mL. The same compound came in with a Cmax (human, in vivo, oral, single dose 100 mg, FIH study, highest individual value) of 1160 ng/mL. Further, the AUC(0-inf) (human, in vivo, oral, single dose 100 mg, FIH study, highest individual value, read-out: AUC0-inf highest value) stood at 13700 ng·h/mL. Further, the “mean Cmax at steady state [Cmax,ss]” value (seven-day course, 40 mg q12h) amounted to 433 ng/mL. In addition, the “tolerability of seven-day courses” value (seven-day courses of up to 40 mg q12h) is reported as “well tolerated”. Moreover, under setting [1], the AUC0-inf averaged is on record as 11,286 ng*h/mL and the Cmax averaged stood at 949 ng/mL. Moreover, the “safety of single doses” value (single doses of up to 100 mg) is “without clinically significant safety concerns”.
